These results are taken from a melting point compilation (Tetko et al.; mined from patent text by program, amines drawn as free bases though some values may be those of a salt).

Each structure is given as a SMILES string. Bounds are passed on as bounds.

As to `COc1cc2c3c(c1)[nH]c(=S)n3CCC2`, the melting point (in general, the temperature of the solid-liquid transition) was 188 to 192 °C. Molecule `NCc1ccc(O)cc1` displayed a melting point of 104 °C.

In turn, `Fc1ccc(Cn2c(NC3CCN(CCNc4nc5cccnc5s4)CC3)nc3ccccc32)cc1` gave a melting point of 204 °C. The molecule `COC(=O)Cc1nnc2n1-c1ccc(Cl)cc1C(c1ccccc1)=NC2` returned a melting point of 202 to 204 °C. For `O=C(N1CC2CC2(c2ccc(Cl)cc2)C1)C12CC3CC(CC(C3)C1)C2` (centres undefined), the melting point is 72 to 75 °C. On to `O=C(c1cc2[nH]nc(-c3cc4cc(CO)ccc4[nH]3)c2s1)N1CCN(c2ccc(F)cc2)CC1`, for which the melting point lay in the range of 156 to 158 °C.

On to `CC1(C)N=C(c2ccccc2F)c2cc(N)ccc2NC1=O`, for which the melting point is 203 °C. Take `O=C(NCc1ccc2c(c1)-c1[nH]nc(-c3ccsc3)c1C2)c1ccncc1`: the melting point was in the range of 278 to 281 °C. The figure for `Brc1cnc(N=C(c2ccccc2)c2ccccc2)s1` is 109 °C. `CCC(C(C)=CC(CNC(=O)c1cccnc1)=NO)[N+](=O)[O-]` (centres undefined) returned a melting point of 105 to 108 °C. `O=C1CCn2c(Cc3ccc(Cl)cc3)nc3c(Cl)ccc1c32` had a melting point of 167 °C.

On to `O=C(O)c1ccc(CC(=O)c2ccccc2Cl)cc1`, for which the melting point was in the range of 168 to 172 °C.

As to `CCCCOCCOc1ccc(-c2ccc3c(c2)C=C(C(=O)Nc2ccc(SCc4n[nH]c(=O)n4CCC)cc2)CCN3CC(C)C)cc1`, the melting point lay in the range of 98 to 101 °C. Take `CCOC(=O)c1cccc(S(=O)(=O)NC(=O)Nc2nc(C)nc(OC)n2)c1I`: the melting point lay within 177 to 179 °C. `CCCCOc1cc(C2(C)CNC(=O)O2)ccc1OC` (centres undefined) registered a melting point of 108 to 109 °C. `CCN(CC)CCNC(=O)c1ccc2cncc(I)c2n1` showed a melting point of 44 to 46 °C.

The molecule `CCCCC(CCC)c1ccc2[nH]c3cnc(C(=O)OCC)c(C)c3c2c1` (centres undefined) yielded a melting point of 225 to 228 °C.

`CCc1noc(C(=NOC)c2ccccc2COc2cc(C)ccc2C)n1` yielded a melting point of 112 °C. With `CC1=C(C#CC2=C(/C=C/C(C)=C/C(=O)O)CCC2)C(C)(C)CCC1`, the melting point lay in the range of 173 to 174 °C. The molecule `CCCCCCCCC1CNc2cc(C(=O)OC)ccc21` (racemic) displayed a melting point of 57 to 60 °C.

Take `NS(=O)(=O)OCCOc1ccc(Br)cc1`: the melting point was 134 to 137 °C.

Take `O=C(NC(Cc1ccccc1)C(=O)O)OCc1ccc(CCOc2ccccc2)cc1` (centres undefined): the melting point lay within 150 to 152 °C.

For the molecule `COCc1nn(C)c(O)c1C(=O)c1ccc(S(C)(=O)=O)c(COC)c1C`, the melting point lay within 100 to 104 °C. As for `CC1(C)C2CCC1(CN1CN(CC34CCC(CC3)C4(C)C)CN(CC34CCC(CC3)C4(C)C)C1)CC2`, the melting point lay in the range of 175 to 180 °C. On to `COc1ccc2c(c1)sc1nc(N)nc(=Nc3ccc(O)cc3)n12`, for which the melting point was above 255 °C. The figure for `Cc1nc(N2CCCC2C)c2nc(-c3ccccc3)cc-2[nH]1` (centres undefined) is 219 to 221 °C; for `C=CCNc1ccc(N(CC(O)CO)CC(O)CO)cc1[N+](=O)[O-]` (centres undefined) it is 154 to 158 °C.

Take `Cc1ccc(S(=O)(=O)N(C)c2ccc(Cl)cc2C(=O)O)cc1`: the melting point lay within 175 to 177 °C. The figure for `Cc1cccc(C(N)=O)c1NS(=O)(=O)c1nc2scc(C)n2n1` is 217 to 218 °C; for `O=C(NCCOc1ccc(CC(Oc2cc(F)c(F)c(F)c2)C(=O)O)cc1)c1ccc(-c2ccccn2)cc1` (centres undefined) it is 144 to 146 °C. As for `Fc1ccc(-c2[nH]nc(C3=CC4CCCN4CC3)c2-c2ccncc2)cc1` (centres undefined), the melting point lay in the range of 204 to 208 °C. `Cc1cc(Oc2ncc(C(F)(F)F)cc2Cl)nn1C(=S)NCc1ccc(Cl)cc1` displayed a melting point of 119 to 121 °C. `O=C1CC2(c3ccccc3)CCCC=C2C(=O)N1CC1CCCCC1` (centres undefined): the melting point was in the range of 111 to 113 °C.

In the case of `O=C1NCN(c2ccccc2)C12CCN(CCCNc1ccc(F)cc1)CC2`, the melting point lay in the range of 158 to 162 °C. `Cc1c(NC(=O)c2ccc(OCC3CC3)cc2)ccc2cc(C(C)N3CCCC3)cnc12` (centres undefined) had a melting point of 162 to 164 °C. Molecule `CCCCCCCCCCC(C)OS(=O)(=O)NC(=O)Nc1c(C(C)C)cccc1C(C)C` (centres undefined) registered a melting point of 110 to 112 °C. For the molecule `COc1ccc(C(=O)c2c(N)sc3c2CCCN3C(=O)OCc2ccccc2)cc1OC`, the melting point is 177 to 178 °C.

As to `C1=C(c2c[nH]c3c(C4CC4)cccc23)CCNC1`, the melting point is 186 to 189 °C. In turn, `N#Cc1cnc2c(sc3c(N)cccc32)c1Nc1cccc(Br)c1` registered a melting point of 256 to 258 °C.

As to `Cc1cc(C)c2c(c1)OCC2c1ccc(C(C)C)cc1` (centres undefined), the melting point is 46 to 47 °C. Consider `CC(=O)Cn1nc(C)oc1=O`, for which the melting point lay within 55 to 58 °C.

`CC(C)(C)C(=Cc1ccc(Cl)cc1Cl)Cn1cncn1`: the melting point stood at 78 °C. The figure for `COC(=O)CN1C(=O)CN=C(c2ccccc2Cl)c2cc(Cl)ccc21` is 193 to 194 °C; for `Cc1ccc2ccccc2c1NC1COC(=O)C1` (centres undefined) it is 92 to 94 °C.

On to `Cn1c(=O)c(=O)[nH]c2ccc3ccccc3c21`, for which the melting point is 294 to 295 °C. The figure for `O=C(NCCCn1ccc2cc(NC(=O)c3nc4ccc(Cl)cc4n3Cc3ccccc3)ccc21)c1cccnc1` is 206 to 207 °C; for `O=C(Nc1cccc2[nH]ccc12)c1cc([N+](=O)[O-])ccc1O` it is above 260 °C. `COC(=O)CN1CCCN(c2ccc(-c3ccc(C#N)cc3)cc2)C1=O` showed a melting point of 145 to 150 °C. Molecule `N#Cc1cn(COCCO)c2ncnc(N)c12` returned a melting point of 178 °C. For `O=C(O)C1=CCC2C1C(=O)C2(Cl)Cl` (centres undefined), the melting point was in the range of 157 to 160 °C. On to `O=C(Cc1ccccn1)N1CCC(C2c3ccc(Cl)cc3CCc3cccnc32)CC1` (centres undefined), for which the melting point was in the range of 81.7 to 82 °C. `CS(=O)(=O)n1c(C#N)nc2cc3c(cc21)OC(F)(Cl)C(F)(Cl)O3` (centres undefined): the melting point was in the range of 123 to 126 °C. The molecule `O[C@@H]1CN(C2CCCCC2)C[C@@H]1NCc1ccccc1` (relative stereo) yielded a melting point of 108 to 110 °C. `CC(=O)NNc1ccnc2c(NC(=O)c3c(Cl)cccc3Cl)ccc(C)c12` had a melting point of 230 to 234 °C. In turn, `CS(=O)(=O)c1nnc(C(F)(F)F)s1` registered a melting point of 84 °C.

As to `O=C1c2ccccc2C(=O)N1Cc1cc(=O)c(OC(c2ccccc2)c2ccccc2)cn1OC(c1ccccc1)c1ccccc1`, the melting point was in the range of 145 to 147 °C. `CCOc1cccc(-n2cnc(-c3nc(CC)no3)c2)c1` registered a melting point of 120 to 121 °C. Turning to `CCc1nc2cc(Cl)c(F)cc2c(=O)n1CCc1ccccc1`, the melting point lay within 150 to 152 °C.

With `CC(Sc1cc2ccccc2[nH]1)(C(=O)OCc1ccccc1)c1ccccc1` (centres undefined), the melting point was in the range of 102 to 103 °C. `Cc1ccc(Sc2ccc3c(c2)CC[C@H]2N(C)C(=O)CC[C@]32C)cc1` yielded a melting point of 154 to 156 °C.

For the molecule `CNC(=O)c1cc2c(nc(C)n2C)c(O)c1CCC(=O)c1ccccc1`, the melting point is 284 to 285 °C. The figure for `COc1nc(C)cnc1N(C(=O)OCC(C)C)S(=O)(=O)c1cccnc1-c1ccc(CC(C)C)cc1` is 133 to 137 °C; for `CS(=O)(=O)NCCCOS(C)(=O)=O` it is 53.5 to 55.5 °C. Molecule `Oc1ccccc1-n1nnc2cccnc21` registered a melting point of 165 to 166 °C.
